# From ChEMBL document CHEMBL1201862, “PubChem BioAssay data set” (2004)
#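 Interpolation was linear, between the two tested concentrations surrounding the appropriate level; five concentrations were tested over 48 hours in 96-well plates. Here, GI50 denotes the concentration required for 50% inhibition of growth.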 Active and inactive are the calls of the source. No stated cut-off is given here; in the data, active = GI50 up to about 1.1 µM and inactive = higher.
# What was measured:
# Assay in all cases: DTP human tumour cell line panel, 48 h
# LXFL 529 = system: LXFL 529
# DLD-1 = system: DLD-1
# RXF 631 = system: RXF 631
# XF498 = system: XF498
# DMS-273 = system: DMS-273
# HOP-18 = system: HOP-18
# M19-MEL = system: M19-MEL
# SNB-78 = system: SNB-78
# KM-20L2 = system: KM-20L2
SMILES,GI50 (LXFL 529),GI50 (DLD-1),GI50 (RXF 631),GI50 (XF498),GI50 (DMS-273),GI50 (HOP-18),GI50 (M19-MEL),GI50 (SNB-78),GI50 (KM-20L2)
O=C1/C(=C/c2ccc(Cl)c(Cl)c2)CNC/C1=C\c1ccc(Cl)c(Cl)c1,3.97 µM (inactive),1.89 µM (inactive),36.3 µM (inactive),19.5 µM (inactive),5.73 µM (inactive),33.7 µM (inactive),22.3 µM (inactive),> 57.4 µM (inactive),7.4 µM (inactive)
O=C(c1ccccc1)C1N=NN(Cc2ccccc2[N+](=O)[O-])C1C(=O)c1ccccc1 (configuration not stated),> 100 µM (inactive),> 100 µM (inactive),–,–,> 100 µM (inactive),> 100 µM (inactive),> 100 µM (inactive),> 100 µM (inactive),> 100 µM (inactive)
CC1=C(C(=O)NCc2ccccc2)C(c2ccc(Cl)c(Cl)c2)C(C(=O)NCc2ccccc2)=C(C)N1,> 100 µM (inactive),> 100 µM (inactive),–,> 100 µM (inactive),> 100 µM (inactive),–,> 100 µM (inactive),> 100 µM (inactive),> 100 µM (inactive)
Cc1cccc(C)c1NC(=O)CCC(=O)/N=C(\N)NC#N,> 100 µM (inactive),> 100 µM (inactive),> 100 µM (inactive),> 100 µM (inactive),–,> 100 µM (inactive),> 100 µM (inactive),–,> 100 µM (inactive)
COc1cc2c(c(OC)c1OC)-c1ccc(OC)c(=O)cc1C(NC(=O)COc1ccccc1)CC2 (configuration not stated),< 0.01 µM (active),< 0.01 µM (active),< 0.01 µM (active),< 0.0625 µM (active),< 0.01 µM (active),> 100 µM (inactive),< 0.01 µM (active),< 0.01 µM (active),< 0.01 µM (active)
O=C1C2C(C(=O)N1c1ccccc1)C1([N+](=O)[O-])C=C3c4ccccc4N(C(=O)c4ccccc4)C32C2C(=O)N(c3ccccc3)C(=O)C21 (configuration not stated),> 100 µM (inactive),> 100 µM (inactive),> 100 µM (inactive),> 100 µM (inactive),> 100 µM (inactive),–,> 100 µM (inactive),> 100 µM (inactive),–
CN1C(=O)C(=CN(C)c2ccccc2)C(=O)N(C)C1=O,> 100 µM (inactive),> 100 µM (inactive),–,> 100 µM (inactive),> 100 µM (inactive),69.8 µM (inactive),49.2 µM (inactive),> 100 µM (inactive),> 100 µM (inactive)
CC1CCCC(C(O)CC2CC(=O)N(c3ccccc3)C(=O)C2)C1=O (configuration not stated),> 100 µM (inactive),> 100 µM (inactive),–,–,> 100 µM (inactive),> 100 µM (inactive),> 100 µM (inactive),> 100 µM (inactive),> 100 µM (inactive)
O=[N+]([O-])c1ccc(-n2nnc(C3=NCCN3)c2-c2ccccc2)cc1,> 100 µM (inactive),> 100 µM (inactive),–,> 100 µM (inactive),> 100 µM (inactive),> 100 µM (inactive),> 100 µM (inactive),> 100 µM (inactive),> 100 µM (inactive)
N#CC1=C(Cl)NC(Cl)=C(C#N)C1c1ccc(Cl)cc1,16.4 µM (inactive),17.7 µM (inactive),13 µM (inactive),14.1 µM (inactive),17.1 µM (inactive),17.6 µM (inactive),–,25.9 µM (inactive),24.6 µM (inactive)
CCOc1ccccc1NC(=O)C1=C(C)NC(C)=C(C(=O)Nc2ccccc2OCC)C1c1cccc([N+](=O)[O-])c1,24 µM (inactive),46.8 µM (inactive),–,17.7 µM (inactive),72.1 µM (inactive),–,> 100 µM (inactive),23.5 µM (inactive),89.1 µM (inactive)
CC(=O)CC(=O)N(CCN(C(=O)CC(C)=O)c1ccccc1)c1ccccc1,> 100 µM (inactive),> 100 µM (inactive),–,> 100 µM (inactive),–,> 100 µM (inactive),> 100 µM (inactive),> 100 µM (inactive),> 100 µM (inactive)
CC1(O)CC2C(CC1SC1CC3C(CC1(C)O)C3(C)C)C2(C)C (configuration not stated),52.2 µM (inactive),74.8 µM (inactive),–,35.1 µM (inactive),41.5 µM (inactive),35.2 µM (inactive),24.9 µM (inactive),73.3 µM (inactive),–
COc1cc2c(cc1OC)C1c3ccccc3C(C#N)(C2)N(C(=O)c2ccccc2)C1O (configuration not stated),46.6 µM (inactive),74.1 µM (inactive),> 100 µM (inactive),24.8 µM (inactive),29.6 µM (inactive),> 100 µM (inactive),> 100 µM (inactive),37.1 µM (inactive),82.4 µM (inactive)
CC(C)N(C(=O)C12C3C4C1C1C2C3C41I)C(C)C (configuration not stated),> 100 µM (inactive),–,> 100 µM (inactive),> 100 µM (inactive),> 100 µM (inactive),–,> 100 µM (inactive),> 100 µM (inactive),–
Fc1cccc(/C=N/C23CC4CC(CC(C4)C2)C3)c1,> 100 µM (inactive),> 100 µM (inactive),–,> 100 µM (inactive),> 100 µM (inactive),> 100 µM (inactive),> 100 µM (inactive),> 100 µM (inactive),> 100 µM (inactive)
COC(=O)C1=C(O)c2cc3c(cc2[C@H](c2cc(OC)c(OC)c(OC)c2)C1)OCO3,37.8 µM (inactive),34.6 µM (inactive),54.7 µM (inactive),25.9 µM (inactive),28.6 µM (inactive),> 100 µM (inactive),0.478 µM (active),87.1 µM (inactive),25.3 µM (inactive)
COC(=O)[C@@]12C(=O)C=CC(=O)[C@@H]1C1C(=CC2COC(C)=O)O[C@@H]2OC3(CCCCC3)O[C@H]12 (some centres not stated),4.28 µM (inactive),9.68 µM (inactive),21.9 µM (inactive),13.2 µM (inactive),8.61 µM (inactive),10.3 µM (inactive),15.5 µM (inactive),21.5 µM (inactive),15.2 µM (inactive)
CC1=CCCC2C(C=O)(C1)CC(C)C2(CO)CC/C(=C/CO)CO (configuration not stated),79.3 µM (inactive),> 100 µM (inactive),> 100 µM (inactive),–,> 100 µM (inactive),> 100 µM (inactive),> 100 µM (inactive),> 100 µM (inactive),–
CCN(c1n[n+]2c(-c3ccccc3)csc2s1)c1n[n+]2c(-c3ccccc3)csc2s1,50.9 µM (inactive),> 100 µM (inactive),–,70.6 µM (inactive),46.8 µM (inactive),> 100 µM (inactive),33.3 µM (inactive),> 100 µM (inactive),72.8 µM (inactive)
Cc1c(C(=O)/C=C/c2ccccc2)[n+]([O-])c2ccccc2[n+]1[O-],13 µM (inactive),14.2 µM (inactive),–,11.9 µM (inactive),15.8 µM (inactive),18.7 µM (inactive),15.7 µM (inactive),34.3 µM (inactive),18 µM (inactive)
